Results on three molecules are retold here after ChEMBL document CHEMBL1125124, “Tertiary 2-haloethylamine derivatives of the muscarinic agent McN-A-343, [4-[[N-(3-chlorophenyl)carbamoyl]oxy]-2-butynyl]trimethylammonium chloride” (J Med Chem, 1990).

A short description of series [1]: Lethal dose was determined in male Swiss-Webster mice by intravenous injection using up-and-down method. It counts as toxicity, organism-based. Conditions: mouse, in vivo.
In another series the test system is Mus musculus. Nature of the series: Peripheral muscarinic effect was evaluated in mice by intravenous injection; No visible tremors or salivation observed. In kind it is functional, organism-based.
The nature of series [2]: Half life was determined. In kind it is ADME.
Series [3] is described as follows: Rate constant (cyclization rate) in CD3CN-deuterated phosphate buffer at pH 7.4. It counts as ADME.

Active and inactive are the calls of the source. The calls are words filed in the database; no cut-off is given here.

In series [1], `C[N+](C)(C)CC#CCOC(=O)Nc1cccc(Cl)c1.[Cl-]` had a median lethal dose (LD50) of 3.7 µmol/kg. Besides, the result in the series with Mus musculus was inactive.
The molecule `CN(CC#CCOC(=O)Nc1cccc(Cl)c1)CCCl` came in with a median lethal dose (LD50) in series [1] of 166 µmol/kg. For the same molecule, the half-life in series [2] stood at 1.87 h. In addition, in series [3], the K1 was 0.0089 min⁻¹ and the K2 was 0.099 min⁻¹.
With `CN(CC#CCOC(=O)Nc1cccc(Cl)c1)CCBr`, in series [1], the 50% lethal dose (LD50) turned out to be 57.2 µmol/kg. The molecule further displayed a K1 in series [3] of 0.27 min⁻¹.

Broadly, the LD50 is the dose expected to kill half of the subjects tested. The low end stands for greater toxicity, the high end for lower toxicity. In general, half-life refers to how long it takes for the measured level to halve.
